{"source": "patent US20080095853A1", "about": "“Modified Release For Proton Pump Inhibitors” (priority 2004, published 2008)", "origin": "cited, not measured here", "test_system": "gastric acid", "details": "splitting a 40 mg dose into 20 mg bid", "data": [{"smiles": "COc1ccc2nc([S@@+]([O-])Cc3ncc(C)c(OC)c3C)[nH]c2c1", "note": "[esomeprazole]", "values": [{"measurement": "nocturnal gastric acid suppression", "value": "significantly improved"}]}]}
